{
  "source": "patent US9289517B2",
  "about": "(COMMISSARIAT A L'ENERGIE ATOMIQUE ET AUX ENERGIES …, priority 2008, dated 2016)",
  "key": {"[1]": {"experiment": "Behaviour in isotonic medium (154 mM sodium chloride)", "assay_type": "physicochemical"}, "[2]": {"experiment": "Fluorescence level measured under optical device (capillaries)", "conditions": "approximately 25 minutes after first measurement; 2.5 nmoles ICG in water, 0.5 nmoles as nanoemulsions"}, "[3]": {"experiment": "Fluorescence quantum yield F", "assay_type": "physicochemical", "conditions": "directly, 10 and 40 days after dialysis"}, "[4]": {"conditions": "prior-art statement; tissue autofluorescence typically 0.3-0.4 ns; cited from earlier work"}},
  "data": [
    {"substance": "indocyanine green [ICG]", "values": [
      {"measurement": "behaviour in isotonic medium", "setting": "[1]", "result": "flocculates"},
      {"measurement": "fluorescence level over time", "setting": "[2]", "result": "reduction over time of the fluorescence level"},
      {"measurement": "stability of quantum yield over time", "setting": "[3]", "result": "the quantum yield remains stable over time, unlike that of free ICG in water"},
      {"measurement": "fluorescence lifetime of ICG", "setting": "[4]", "result": 0.5, "unit": "ns"}
    ]}
  ]
}
